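Exposure lasted 48 hours, with cells grown in 96-well plates and compounds tested at five concentrations. Definition used: TGI = concentration required for complete inhibition of growth.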
How the values were obtained:
Assay in all cases: NCI tumour cell line growth inhibition, 48 h
[1] = test system: 786-0 renal
[2] = test system: A549 NSCLC
[3] = test system: ACHN renal
[4] = test system: CAKI-1 renal
[5] = test system: CCRF-CEM leukemia
[6] = test system: COLO 205 colon
[7] = test system: DLD-1 colon
[8] = test system: DMS 114 small cell lung
[9] = test system: DMS 273 small cell lung
[10] = test system: EKVX NSCLC
[11] = test system: HCC-2998 colon
[12] = test system: HCT-116 colon
[13] = test system: HCT-15 colon
[14] = test system: HL-60(TB) leukemia
[15] = test system: HOP-18 NSCLC
[16] = test system: HOP-62 NSCLC
[17] = test system: HOP-92 NSCLC
[18] = test system: HT29 colon
[19] = test system: IGROV1 ovarian
[20] = test system: K-562 leukemia
[21] = test system: KM12 colon
[22] = test system: LOX IMVI melanoma
[23] = test system: LXFL 529 NSCLC
[24] = test system: M14 melanoma
[25] = test system: M19-MEL melanoma
[26] = test system: MALME-3M melanoma
[27] = test system: MOLT-4 leukemia
[28] = test system: NCI-H226 lung
[29] = test system: NCI-H23 lung
[30] = test system: NCI-H522 lung
[31] = test system: OVCAR-3 ovarian
[32] = test system: OVCAR-5 ovarian
[33] = test system: OVCAR-8 ovarian
[34] = test system: RPMI-8226 leukemia
[35] = test system: RXF-631 renal
[36] = test system: SF-268 CNS
[37] = test system: SF-295 CNS
[38] = test system: SF-539 CNS
[39] = test system: SK-MEL-2 melanoma
[40] = test system: SK-MEL-28 melanoma
[41] = test system: SK-MEL-5 melanoma
[42] = test system: SK-OV-3 ovarian
[43] = test system: SN12C renal
[44] = test system: SNB-75 CNS
[45] = test system: SNB-78 CNS
[46] = test system: SR leukemia
[47] = test system: SW-620 colon
[48] = test system: TK-10 renal
[49] = test system: U251 CNS
[50] = test system: UACC-257 melanoma
[51] = test system: UACC-62 melanoma
[52] = test system: UO-31 renal
[53] = test system: XF 498 CNS

Q: For `CCOC(=O)C(Br)=C1OC(=O)c2ccccc2-c2ccccc21` (mixture of isomers), which TGI [1] is on record?
A: 32.7 µM

Q: And the TGI [2]?
A: > 100 µM

Q: And the TGI [3]?
A: 29 µM

Q: And the TGI [4]?
A: 32.7 µM

Q: What about the TGI [5] of the same compound?
A: 40.2 µM

Q: And the TGI [6]?
A: 32.9 µM

Q: And the TGI [7]?
A: 36.4 µM

Q: What about the TGI [8] of the same compound?
A: 32.2 µM

Q: And the TGI [9]?
A: 29 µM

Q: What about the TGI [10] of the same compound?
A: > 100 µM

Q: What about the TGI [11] of the same compound?
A: 38 µM

Q: What about the TGI [12] of the same compound?
A: 34 µM

Q: And the TGI [13]?
A: 40 µM

Q: And the TGI [14]?
A: 35 µM

Q: What about the TGI [15] of the same compound?
A: 51.4 µM

Q: And the TGI [16]?
A: 37.4 µM

Q: And the TGI [17]?
A: 29.5 µM

Q: What about the TGI [18] of the same compound?
A: 29.5 µM

Q: What about the TGI [19] of the same compound?
A: 34.4 µM

Q: And the TGI [20]?
A: 22.7 µM

Q: What about the TGI [21] of the same compound?
A: 34.9 µM

Q: What about the TGI [22] of the same compound?
A: 35.9 µM

Q: And the TGI [23]?
A: 26.5 µM

Q: What about the TGI [24] of the same compound?
A: 37.1 µM

Q: And the TGI [25]?
A: 31 µM

Q: What about the TGI [26] of the same compound?
A: 37.6 µM

Q: And the TGI [27]?
A: 47.6 µM

Q: What about the TGI [28] of the same compound?
A: 60.4 µM

Q: What about the TGI [29] of the same compound?
A: 48 µM

Q: What about the TGI [30] of the same compound?
A: 32 µM

Q: And the TGI [31]?
A: 35.9 µM

Q: What about the TGI [32] of the same compound?
A: 42.6 µM

Q: And the TGI [33]?
A: 75.8 µM

Q: And the TGI [34]?
A: 38.1 µM

Q: And the TGI [35]?
A: 49.9 µM

Q: And the TGI [36]?
A: 88.3 µM

Q: And the TGI [37]?
A: 54.4 µM

Q: And the TGI [38]?
A: 46.8 µM

Q: What about the TGI [39] of the same compound?
A: 37.4 µM

Q: What about the TGI [40] of the same compound?
A: 37.8 µM

Q: What about the TGI [41] of the same compound?
A: 35.8 µM

Q: What about the TGI [42] of the same compound?
A: > 100 µM

Q: And the TGI [43]?
A: 56.4 µM

Q: And the TGI [44]?
A: 51 µM

Q: And the TGI [45]?
A: 52.3 µM

Q: What about the TGI [46] of the same compound?
A: 47.2 µM

Q: What about the TGI [47] of the same compound?
A: 35.1 µM

Q: And the TGI [48]?
A: 49 µM

Q: And the TGI [49]?
A: 59.4 µM

Q: And the TGI [50]?
A: 48 µM

Q: And the TGI [51]?
A: 29.5 µM

Q: And the TGI [52]?
A: > 100 µM

Q: And the TGI [53]?
A: 38.5 µM
